{
  "source": "patent US9527887B2",
  "about": "(priority 2011, dated 2016)",
  "key": {"GC-C [1]": {"target": "T1, GC-C (Homo sapiens, UniProt P25092)", "T1 sequence (P25092 24-1073 limits assumed)": "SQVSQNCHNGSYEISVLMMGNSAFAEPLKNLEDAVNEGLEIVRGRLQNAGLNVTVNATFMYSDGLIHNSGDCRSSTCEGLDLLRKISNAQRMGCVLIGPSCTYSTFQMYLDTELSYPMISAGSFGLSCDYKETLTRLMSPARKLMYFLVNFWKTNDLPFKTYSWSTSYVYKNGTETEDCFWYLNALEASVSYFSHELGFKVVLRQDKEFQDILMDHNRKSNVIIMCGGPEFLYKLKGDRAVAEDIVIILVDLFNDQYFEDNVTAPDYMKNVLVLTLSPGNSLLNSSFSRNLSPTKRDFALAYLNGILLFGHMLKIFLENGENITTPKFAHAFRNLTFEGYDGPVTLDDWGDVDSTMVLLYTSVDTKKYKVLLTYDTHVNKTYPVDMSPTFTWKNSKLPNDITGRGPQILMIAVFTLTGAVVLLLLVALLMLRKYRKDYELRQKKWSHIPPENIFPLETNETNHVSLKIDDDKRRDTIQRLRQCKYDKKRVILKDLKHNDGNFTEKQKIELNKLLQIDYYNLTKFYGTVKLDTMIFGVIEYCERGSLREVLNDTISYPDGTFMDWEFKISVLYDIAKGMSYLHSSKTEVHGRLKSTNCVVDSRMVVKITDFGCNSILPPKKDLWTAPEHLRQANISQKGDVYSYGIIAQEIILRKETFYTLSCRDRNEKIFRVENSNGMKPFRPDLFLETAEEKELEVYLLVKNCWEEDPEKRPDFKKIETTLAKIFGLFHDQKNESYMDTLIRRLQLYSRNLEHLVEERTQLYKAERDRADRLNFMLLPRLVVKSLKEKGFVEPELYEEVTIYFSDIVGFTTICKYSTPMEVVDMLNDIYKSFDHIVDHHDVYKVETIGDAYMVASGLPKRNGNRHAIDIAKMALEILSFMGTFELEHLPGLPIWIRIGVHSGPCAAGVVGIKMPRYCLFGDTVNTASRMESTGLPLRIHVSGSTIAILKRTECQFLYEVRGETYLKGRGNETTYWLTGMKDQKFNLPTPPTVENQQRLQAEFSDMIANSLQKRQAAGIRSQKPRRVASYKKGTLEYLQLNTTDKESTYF", "assay": "biochemical", "type": "binding"}, "GC-C [2]": {"target": "T1, GC-C", "assay": "cell-based", "conditions": "30 min at 37° C., IBMX"}, "[3]": {"conditions": "after oral administration at therapeutic dose levels; cited from earlier work"}},
  "note": "Like-named read-outs stand apart in the source and are kept apart here. Where a SMILES comes first, the peptide text is derived from it. Bridges are numbered along the chain shown (N, C = ends).",
  "data": [
    {"smiles": "CC(C)C[C@@H]1NC(=O)[C@H](CCC(=O)O)NC(=O)[C@@H]2CSSC[C@@H]3NC(=O)[C@H](C)NC(=O)[C@@H]4CCCN4C(=O)[C@H](CC(N)=O)NC(=O)[C@H](CSSC[C@H](NC(=O)[C@H](CC(=O)O)NC(=O)[C@H](CC(=O)O)NC(=O)[C@@H](N)CC(=O)O)C(=O)N2)NC(=O)[C@H](CSSC[C@@H](C(=O)N[C@@H](Cc2ccc(O)cc2)C(=O)O)NC(=O)CNC(=O)[C@H]([C@@H](C)O)NC3=O)NC1=O", "note": "[Peptide 17, DDDCCELCCNPACTGCY]", "values": [
      {"measurement": "Ki", "setting": "GC-C [1]; Binding affinity for GC-C Ki (nM) pH 5", "result": 4.3, "unit": "nM"},
      {"measurement": "Ki", "setting": "GC-C [1]; Binding affinity for GC-C Ki (nM) pH 8", "result": 27.3, "unit": "nM"},
      {"measurement": "EC50", "setting": "GC-C [2]; pH 5 (DMEM+20 mM MES), read-out: cGMP response in T84 cells EC50 nM pH 5", "result": 12.9, "unit": "nM"},
      {"measurement": "EC50", "setting": "GC-C [2]; pH 8 (DMEM+50 mM sodium bicarbonate), read-out: cGMP response in T84 cells EC50 nM pH 8", "result": 4980, "unit": "nM"}
    ]},
    {"smiles": "C[C@@H]1NC(=O)[C@@H]2CCCN2C(=O)[C@H](CC(N)=O)NC(=O)[C@@H]2CSSC[C@H](N)C(=O)N[C@H]3CSSC[C@H](NC1=O)C(=O)N[C@@H]([C@@H](C)O)C(=O)NCC(=O)N[C@H](C(=O)N[C@@H](Cc1ccc(O)cc1)C(=O)O)CSSC[C@H](NC(=O)[C@H](Cc1ccc(O)cc1)NC(=O)[C@H](CCC(=O)O)NC3=O)C(=O)N2", "note": "[linaclotide, Linaclotide] (H-CCEYCCNPACTGCY-OH; disulfide 1-6, 2-10, 5-13)", "values": [
      {"measurement": "levels of linaclotide seen systemically", "setting": "[3]", "result": "no detectable levels"}
    ]}
  ]
}
